Where two headings read alike, the source gives them in different places.

Series [1] deals with T1, recombinant CZP (cruzain) (Trypanosoma cruzi, UniProt P25779).
T1 construct: gift of Allison Doak and Prof; Brian Shoichet (University of California San Francisco)
Briefly: CZP inhibition, cleavage of fluorogenic substrate Z-FR-AMC (initial screening and IC50). The class given is biochemical, T. cruzi. Particulars: for times lower potency than the most active analogues (Ald-6 and Ald-10): CZP IC50 ratio. As for the experimental part:
The previously reported methods were followed to evaluate the in vitro activity against CZP [91, 92, 93, 94]. Allison Doak and Prof. Brian Shoichet (University of California San Francisco, San Francisco, CA, USA) generously provided recombinant CZP (cruzain). The enzyme activity was measured by monitoring the cleavage of the fluorogenic substrate Z-FR-AMC at 25 °C. Unless stated otherwise, assays were performed using 2.5 μ M of substrate ( KM = 0.5 ± 0.1 μ M) and 0.5 nM CZP in a 0.1 M sodium acetate buffer, pH 5.5, 0.01% Triton X-100 and 2 mM β -mercaptoethanol. DMSO and 1 μ M E-64 were employed as negative and positive controls, respectively, in all assays. Fluorescence was monitored at 340/440 nm (excitation/emission) over time in a Biotec 87 Synergy 2 fluorimeter at the Multiuser Laboratory of the Biochemistry and Immunology Department (UFMG, Belo Horizonte, Brazil). All assays were performed in triplicate in two independent experiments.
Initial screening. For the initial screening against CZP, compounds at 100 μ M were tested against CZP with and without a 10min pre-incubation with the enzyme. The fluorescence was monitored for 10 min at 5 s intervals. DMSO and E-64 were employed in all assays as negative and positive controls, respectively. Initial velocities of the negative control (DMSO) were compared to those in the presence of compounds to calculate the percentage of inhibition. The reported values correspond to the mean and standard error of the mean (SEM) of experiments performed in triplicate in two independent experiments.
IC50 determination. Compounds in at least eight distinct compound concentrations (400 μ M, 100 μ M, 25 μ M, 6.25 μ M, 1.5 μ M, 0.4 μ M, 0.1 μ M and 0.025 μ M) were incubated with CZP for 10 min, and once the substrate was added, the fluorescence was monitored for 10 min at 5 s intervals. IC50 curves were obtained from a non-linear fit of the inhibition values versus the logarithmic concentration of the compounds. The reported IC50 values are the mean and SEM of two independent measurements performed in triplicate.

The target of series [2] is T2, recombinant human cathepsin L (hCatL) (Homo sapiens, UniProt P07711).
T2 construct: purchased Sigma-Aldrich
Briefly: hCatL screening, cleavage of Z-FR-AMC. The class given is biochemical. The note with it: for inhibition at 100 µM: read-out: % hCatL inhib. As for the experimental part: The recombinant human cathepsin L (hCatL) (Sigma-Aldrich) was activated prior to the assays. First, 10 ng/ μ L of the enzyme was incubated in the activation buffer (50 mM MES, pH 6, 1 mM EDTA, 5mM DTT) for 30 min at 37 °C. hCatL activity was measured based on the cleavage of the fluorescent substrate Z-FR-AMC in a Biotec 87 Synergy 2 fluorimeter at the Multiuser Laboratory of the Biochemistry and Immunology Department (UFMG, Brazil). The assays were executed in 96-well round bottom black plates in 50 mM MES buffer, pH 6, containing 1 mM EDTA, 5 mM DTT, 0.001% Triton-X100, 5 pg/ μ L enzyme and 25 μ M Z-FR-AMC at 37 °C. The triazole-based derivatives were tested against hCatL, at 100 μ M, with a 10 min pre-incubation with the enzyme. The initial velocities of the DMSO control were compared to those in the presence of the compounds. Assays were executed in triplicate in two independent experiments, and enzyme activity was measured for 20 min.

Series [3] deals with T. cruzi (Tulahuen trypomastigotes overexpressing β-galactosidase) in Vero cells. Briefly: T. cruzi inhibition assay, infection model in Vero cells, β-galactosidase activity. The class given is cell-based, Trypanosoma cruzi. The note with it: 50 μM (Ald-4 20 μM). As for the experimental part: To perform the assay, the drug screening method reported by Buckner et al. was adapted. Vero cells were seeded at 1 × 10^4 per well on 96-well culture plates in 100 μ L MEM-5% FBS. Tulahuen trypomastigotes overexpressing the E. coli β -galactosidase protein were distributed in triplicates on the plate. After a 2 h incubation at 37 °C, the culture media were extracted and replaced with fresh MEM-5% FBS with 1 μ M, 10 μ M or 50 μ M solutions of the triazole-based inhibitors, and the plate was incubated another 72 h at 37 °C. Ninety-six hours post infection, the cell culture media were removed and cells and intracellular amastigotes were lysed in 100 μ L lysis buffer (25 mM Tris pH 8, 2 mM EDTA, 2 mM DTT, 1% Triton X-100, 10% glycerol in ultrapure MQ water) for 10 min at 37 °C. Then, 100 μ L 2× reaction buffer (200 mM sodium phosphate pH 8, 2 mM MgCl2, 100 mM 2-mercaptoethanol and 1.33 mg.mL^−1 o-nitrophenyl- β -galactoside (ONPG)) was added and the reaction was allowed to proceed until a yellow color developed (1–2 h at 37 °C). The absorbance at 420 nm was measured in a Synergy HTX multi-mode microplate reader (Biotek Instruments, Winooski, VT, USA) and normalized to the value obtained for the infection in the absence of inhibitors. To determine its IC50, Ald-6 was evaluated at nine different concentrations (0.098, 0.195, 0.39, 0.78, 1.56 3.13 6.25, 12.5 and 50.0 μ M), following the same protocol. Each infection condition and inhibitor were tested in triplicates in four independent experiments.

In another series the test system is Vero cells. As to the kind of experiment: Cytotoxicity assay, Alamar blue. The class given is cell-based. The note with it: 50 μM, 96 h incubation. As for the experimental part:
To evaluate the viability of Vero cells, the Alamar blue method was followed. First, 10^4 Vero cells/well in 100 μ L MEM-10% FBS were seeded in 96-well culture plates. After 24 h, 50 μ M inhibitor solution was added to cell monolayers and incubated for 96 h. After incubation, resazurin solution (final concentration 10 μ g·mL^−1) was added to each well, and fluorescence was measured after 2 h in a Synergy HTX multi-mode microplate reader (Biotek Instruments, Winooski, VT, USA) using the […] filters. Each condition was tested in triplicate and in at least three independent experiments.

Series [4] deals with T3, CZP (Trypanosoma cruzi, UniProt P25779).
T3 construct: gift of Allison Doak and Prof; Brian Shoichet (University of California San Francisco)
Briefly: Aggregation assays (Triton X-100 sensitivity, BSA preincubation) on CZP. The class given is biochemical, T. cruzi. As for the experimental part: Aggregation Assays. To evaluate detergent sensitivity, CZP was pre-incubated with compounds at their IC50 for 10 min at room temperature in varying concentrations of Triton X-100 (0%, 0.1% and 0.01%). […] For comparison, the four conditions were assayed in parallel. Aggregation was excluded when the difference in inhibition percentages between the different conditions was less than 20%.

Series [5] deals with T3, CZP. Briefly: Mechanism of CZP inhibition (Michaelis-Menten, Lineweaver-Burk). The class given is biochemical, T. cruzi. The procedure:
Mechanism of inhibition. […] The results were calculated by nonlinear (Michaelis–Menten) and linear regression (Lineweaver–Burk plots). The effect of the inhibitor concentration on the KMapp and its Ki was evaluated by the general linear F-test.

[6] abbreviates: 100 μM, 10 min pre-incubation of the enzyme with compound, read-out: % CZP inh.
[7] abbreviates: 10 min incubation with CZP, mean ± SEM of two independent experiments, read-out: IC50 (μM) against CZP.
Setting [8] is: compound at its IC50, 10 min preincubation.

T2 sequence (P07711 114-333): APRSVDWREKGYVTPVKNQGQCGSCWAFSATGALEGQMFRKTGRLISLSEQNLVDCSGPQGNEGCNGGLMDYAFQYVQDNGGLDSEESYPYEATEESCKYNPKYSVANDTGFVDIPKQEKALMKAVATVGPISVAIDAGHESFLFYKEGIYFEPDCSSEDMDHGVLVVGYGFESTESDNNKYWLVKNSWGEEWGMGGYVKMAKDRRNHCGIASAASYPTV
T3 sequence (P25779 123-337): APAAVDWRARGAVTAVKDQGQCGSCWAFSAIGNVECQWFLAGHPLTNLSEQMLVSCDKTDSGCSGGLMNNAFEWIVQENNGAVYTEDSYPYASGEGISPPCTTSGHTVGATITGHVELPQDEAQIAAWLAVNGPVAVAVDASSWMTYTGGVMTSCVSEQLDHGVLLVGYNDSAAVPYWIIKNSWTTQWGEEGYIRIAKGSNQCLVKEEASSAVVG
T1 sequence (P25779 123-337): as above

As to `O=CC(Cc1ccccc1)n1cc(C(NCc2ccc3c(c2)OCO3)C2CCCCC2)nn1` (stereo not drawn) [Ald-1], in series [1], the IC50 was 41 ± 4 µM; the “times lower potency than the most active analogues (Ald-6 and Ald-10)” value amounted to 12.4. In addition, the inhibition at 100 µM in series [1] (setting [6]) is 64 ± 5%. The “selectivity for CZP over hCatL in words” value in series [2] (100 μM) was “selective CZP inhibitors”. In addition, the inhibition at 100 µM in series [2] (10 min incubation) came to 0%.
On to `O=CC(Cc1c[nH]cn1)n1cc(C(NCc2ccc3c(c2)OCO3)C2CCCCC2)nn1` (stereo not drawn) [Ald-4], for which the figures for the inhibition at 100 µM in series [1] (setting [6]) and in series [2] (10 min incubation) were 83 ± 2% and 10 ± 3%, respectively. For the same compound, the IC50 in series [1] (setting [7]) amounted to 5 ± 2 µM. In series [2] (100 μM), the “selectivity for CZP over hCatL in words” value is listed as “selective CZP inhibitors”. The “anti-T. cruzi/cytotoxicity balance in words” value in series [3] was “acceptable anti-T. cruzi/cytotoxicity balance”.
On to `CC(C)CC(C=O)n1cc(C(NCc2ccc3c(c2)OCO3)C2CCCCC2)nn1` (stereo not drawn) [Ald-5], for which the IC50 in series [1] was determined as 7 ± 2 µM. For the same compound, the inhibition at 100 µM in series [1] (setting [6]) stood at 64 ± 2%; in series [2] (10 min incubation), 24 ± 9%. Moreover, the “selectivity for CZP over hCatL in words” value in series [2] (100 μM) was “selective CZP inhibitors”.
On to `O=CC(Cc1c[nH]c2ccccc12)n1cc(C(NCc2ccc3c(c2)OCO3)C2CCCCC2)nn1` (stereo not drawn) [Ald-12], for which the inhibition at 100 µM in series [1] (setting [6]) was 56 ± 7%; in series [2] (10 min incubation) it was 0%. In series [1] (setting [7]), the IC50 turned out to be 45.4 ± 0.3 µM. Also, the “times lower potency than the most active analogues (Ald-6 and Ald-10)” value in series [1] amounted to 13.8. In addition, the “selectivity for CZP over hCatL in words” value in series [2] (100 μM) is listed as “selective CZP inhibitors”.
Consider `O=CC(Cc1ccc(O)cc1)n1cc(C(NCc2ccc3c(c2)OCO3)C2CCCCC2)nn1` (stereo not drawn) [Ald-13], for which the inhibition at 100 µM in series [1] (setting [6]) was found to be 83 ± 2%; in series [2] (10 min incubation), 0%. Besides, the IC50 in series [1] (setting [7]) stood at 13 ± 5 µM. The “times lower potency than the most active analogues (Ald-6 and Ald-10)” value in series [1] is 3.9. Further, in series [2] (100 μM), the “selectivity for CZP over hCatL in words” value is recorded as “selective CZP inhibitors”.
For `O=CC(CO)n1cc(C(C2CCCCC2)N2CCc3ccccc3C2)nn1` (stereo not drawn) [Ald-20], the IC50 in series [1] was determined as 7 ± 4 µM. The inhibition at 100 µM turned out to be 83 ± 3% in series [1] (setting [6]) and 0% in series [2] (10 min incubation). In series [2] (100 μM), the “selectivity for CZP over hCatL in words” value is listed as “selective CZP inhibitors”. Moreover, in series [3], the “anti-T. cruzi/cytotoxicity balance in words” value is recorded as “acceptable anti-T. cruzi/cytotoxicity balance”.
As for `CC(C)C[C@H](NC(=O)[C@H]1O[C@@H]1C(=O)O)C(=O)NCCCCN=C(N)N` [E-64, reference compound], in series [1] (1 μM, 10 min preincubation), the “CZP inhibition by positive control” value came to 98%. The “% CZP inh.” value in series [1] (100 μM, 10 min pre-incubation of the enzyme with compound) came out at 98 ± 2%. The “% CZP inhib. wo/inc.” value in series [1] (100 μM, without prior incubation) is listed as 12± 8%. Further, the “% hCatL inhib.” value in series [2] (100 μM, 10 min incubation) was 97 ± 3%.
Regarding `COC(=O)C(CS)n1cc(C(NCc2ccc3c(c2)OCO3)C2CCCCC2)nn1` (stereo not drawn) [Es-14], the figures for the inhibition at 100 µM in series [1] (setting [6]) and in series [2] (10 min incubation) were at least 47% and 0%, respectively. Besides, the “selectivity for CZP over hCatL in words” value in series [2] (100 μM) was “selective CZP inhibitors”. Further, the “cytotoxicity, uninfected Vero cell viability in words” value with Vero cells was “significantly reduced cell viability”.
As to `COC(=O)C(CCCNC(=N)N)n1cc(C(NCc2ccc3c(c2)OCO3)C2CCCCC2)nn1` (stereo not drawn) [Es-15], the inhibition at 100 µM in series [1] (100 μM, without prior incubation, read-out: % CZP inhib. wo/inc.) amounted to 81 ± 2%. The IC50 in series [1] (setting [7]) is 6.8 ± 0.3 µM. Also, the “selectivity for CZP over hCatL in words” value in series [2] (100 μM) was “selective CZP inhibitors”. For the same compound, the inhibition at 100 µM in series [2] (10 min incubation) was determined as 26 ± 16%. Moreover, the “anti-T. cruzi/cytotoxicity balance in words” value in series [3] is given as “acceptable anti-T. cruzi/cytotoxicity balance”. The “CZP activity inhibition percentage, Triton 0% + BSA” value on CZP [4] (compound at its IC50, 10-min preincubation with 4 mg/mL BSA) is listed as 40± 3%. Further, at CZP [4] (setting [8]), the “CZP activity inhibition percentage, Triton 0%” value worked out at 44± 5%; the “CZP activity inhibition percentage, Triton 0.01%” value worked out at 41± 1%; the “CZP activity inhibition percentage, Triton 0.1%” value came out at 36± 7%. In addition, at CZP [5] (calculated, general linear F-test p = 0.0127), the Ki is 3 ± 1 µM. Further, on CZP [5] (in words), the “mechanism of CZP inhibition” value is reported as “mixed mechanism of inhibition”. At CZP [5] (mixed-model fit of Michaelis-Menten data), this compound had a α value of 8.3.
As for `COC(=O)C(Cc1ccc(O)cc1)n1cc(C(C2CCCCC2)N2CCc3ccccc3C2)nn1` (stereo not drawn) [Es-23], the inhibition at 100 µM in series [1] (setting [6]) stood at 1 ± 14%.
Regarding `COC(=O)C(CCCNC(=N)N)n1cc(C(C2CCCCC2)N2CCc3ccccc3C2)nn1` (stereo not drawn) [Es-24], the inhibition at 100 µM in series [1] (setting [6]) was determined as 6 ± 1%.

A word on the IC50: it is the point on the concentration scale where inhibition reaches its midpoint. In general, Ki refers to the dissociation constant of the complex between target and ligand, obtained from inhibition or displacement.

(Values after PMC11396839, “Structure-Aided Computational Design of Triazole-Based Targeted Covalent Inhibitors of Cruzipain” (Molecules, 2024).)
